{"source": "patent US9464066B2", "about": "“Deuterated compounds useful for treating neurodegenerative diseases” (PharmatrophiX, Inc., priority 2009, dated 2016)", "tested_on": "hippocampal neurons", "assay": "Measurement of activity relative to BDNF: prevention of degeneration of hippocampal neurons", "assay_type": "cell-based", "conditions": "hippocampal neurons from embryological day 16 mice, assessed 48 hours following cell seeding; BDNF maximum defined as 100%; baseline (CM) approximately 40%", "method": "Compounds of the present application are tested for their ability to prevent the degeneration of hippocampal neurons as described in Massa et al J Neurosci. (2006) 26(20):5288-300. In brief, hippocampal neurons are isolated from embryological day 16 mice and seeded in 96-well tissue culture plates under conditions in which they degenerated in the absence of neurotrophin receptor ligands. Neuronal degeneration is assessed using morphological criteria 48 hours following cell seeding. The neurotrophins brain-derived neurotrophic factor (BDNF) and nerve growth factor (NGF) serve as positive controls. The maximum cell death preventing activity of BDNF is defined as 100% neurotrophic activity. The efficacy of NGF is 80% of that of BDNF. The neurotrophic activity of the test compounds at each applied concentration is quantitated in terms of a percentage of the maximum BDNF-supported survival level. In the presence of culture medium (CM) and the absence of BDNF or compounds, survival is approximately 40% of the BDNF maximum effect and this is regarded as baseline survival. For each compound, dose-response curves are generated and the EC50 and maximum survival percentage are derived.", "data": [{"substance": "NGF: neurotrophin nerve growth factor, serves as positive control in the hippocampal neuron survival assay", "values": [{"measurement": "efficacy (neurotrophic activity as percentage of the maximum BDNF-supported survival)", "value": 80, "unit": "%"}]}]}
